ChEMBL document CHEMBL1133977, “Robinlin: a novel bioactive homo-monoterpene from Robinia pseudoacacia L. (Fabaceae)” (Bioorg Med Chem Lett, 2001)
In brackets after ≈: the same amount, converted by molar mass.

Legend:
MCF7 = assay: In vitro cytotoxic activity against MCF-7 (human breast carcinoma) cell line; assay type: functional; conditions: read-out: ED50 (the source's name)
[1] = Activity in brine shrimp lethality test (BST); assay type: organism-based; conditions: artemia, in vivo
HT-29 = assay: In vitro cytotoxic activity against HT-29 (human colon adenocarcinoma) cell line; assay type: functional; conditions: read-out: ED50 (the source's name)
A498 = assay: In vitro cytotoxic activity against A-498 (human kidney carcinoma) cell line; assay type: functional; conditions: read-out: ED50 (the source's name)
MIA PaCa-2 = assay: In vitro cytotoxic activity against PACA-2 (human pancreatic carcinoma) cell line; assay type: functional; conditions: read-out: ED50 (the source's name)
PC-3 = assay: In vitro cytotoxic activity against PC-3 (human prostate adenocarcinoma) cell line; assay type: functional; conditions: read-out: ED50 (the source's name)
A549 = assay: In vitro cytotoxic activity against A-549 (human lung carcinoma) cell line; assay type: functional; conditions: read-out: ED50 (the source's name)

Compound | EC50 (MCF7) | LC50 [1] | EC50 (HT-29) | EC50 (A498) | EC50 (MIA PaCa-2) | EC50 (PC-3) | EC50 (A549)
CC1=C(CCO)C(C)(C)C[C@@H](O)C1=O | 46000 ng/mL (≈ 232 µM) | 4900 ng/mL (≈ 24.7 µM) | 52000 ng/mL (≈ 262 µM) | > 100000 ng/mL | > 100000 ng/mL | > 100000 ng/mL | 47000 ng/mL (≈ 237 µM)
COc1cccc2c1C(=O)c1c(O)c3c(c(O)c1C2=O)C[C@@](O)(C(=O)CO)C[C@@H]3O[C@H]1C[C@H](N)[C@H](O)[C@H](C)O1 [DOXORUBICIN] | 5.8 ng/mL (≈ 0.0107 µM) |  | 1.3 ng/mL (≈ 0.00239 µM) | 0.46 ng/mL (≈ 0.000846 µM) | 0.18 ng/mL (≈ 0.000331 µM) | 0.24 ng/mL (≈ 0.000442 µM) | 0.21 ng/mL (≈ 0.000386 µM)
